In US9101611B1, “Use of sulfonylurea (Glimepiride) to lower blood glucose” (priority 2014, dated 2015):

Test: Stopping Glimepiride tablets after secondary failure, then resuming; effect on blood glucose
Type: in vivo, human
Conditions: then resumed
Excerpt: From new research, I found a new usage of sulfonylurea drug Glimepiride when secondary failure occurs. […] It is likely that recovery works because stopping taking the drug fools the human body to assume like the first day taking it which it is claimed.
Since pre-diabetes and/or diabetes have used sulfonylurea drugs since the mid-1950s (1), there is no new matter or invention of sulfonylurea drugs in this patent application. The newness in this patent application is the usage of sulfonylurea drug like Glimepiride that fails to work when secondary failure occurs by stopping taking the tablet for 3 or 5 days which automatically also lower blood glucose and then resuming taking it that works like the first day taking it. In essence, it prevents the patient from taking more dosage of medication and/or changing to another different medication.

Structure (SMILES): CCC1=C(C)CN(C(=O)NCCc2ccc(S(=O)(=O)NC(=O)N[C@H]3CC[C@H](C)CC3)cc2)C1=O [Glimepiride]
- effectiveness to lower blood glucose (tablets stopped for 3 days): recovers Glimepiride's effectiveness to lower blood glucose like the first day taking it
- recovery effectiveness (tablets stopped for 5 days): recovery effectiveness was first detected
